This passage reports EC50 and IC50 results from patent publication US10098878B2, “HIF-2α inhibitors for treating iron overload disorders” (The Board of Regents of the University of Texas System, priority 2014, dated 2018).

pEC50, pIC50: −log10 of the molar value. Read-outs that look alike come from different tables or passages of the source.

One test deals with 786-O-Hif-Luc cells. Nature of the test: Luciferase Assay. Format: cell-based. The following applies: read-out: Luciferase EC50. The protocol:
A pool of infected cells were then selected against 2 μg/mL of puromycin (P8833, Sigma) for 10 days followed by limited dilution to select single clones.
Each concentration was tested in triplicate. After about 24 hours, luciferase activity was determined using ONE-Glo Luciferase Assay Reagent (E6110, Promega) following the manufacturer's recommended procedure. EC50 were calculated by using Dotmatics software.

Test [1] concerns the target T1, HIF-2α HIS TAG-PASB Domain (Homo sapiens, UniProt Q99814).
T1 construct: 100 nM HIF-2α HIS TAG-PASB Domain
Kind of test: HIF-2α Scintillation Proximity Assay (SPA). The format is binding. The settings on record: 100 nM HIF-2α HIS TAG-PASB Domain. The method in brief: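 IC50 values rest on percent inhibition, where the sample signal is scaled between high and low controls. Wells contain about 100 μL: compound dispensed as 2 μL of DMSO solution, 88 μL protein-probe mix and 10 μL of beads.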

Where [2] appears, read: 24 h, 786-O-Hif-Luc cells, about 24 hours.
The mark [3] stands for this setting: 150 nM Compound 211 probe, read-out: SPA IC50.
Where [4] appears, read: SPA IC50, 150 nM Compound 211 probe.
The mark [5] stands for this setting: 786-O-Hif-Luc cells, about 24 hours.

T1 sequence (Q99814 240-350 limits assumed): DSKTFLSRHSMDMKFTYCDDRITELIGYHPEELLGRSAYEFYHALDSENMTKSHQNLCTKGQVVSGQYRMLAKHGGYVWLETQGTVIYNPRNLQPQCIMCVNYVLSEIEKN

What is called pEC50 is the EC50 on a negative log10 scale, so that one unit is a factor of ten. By pIC50 is commonly meant the negative decadic logarithm of the IC50, by convention in mol/L. As for `N#Cc1cc(F)cc(Oc2ccc3c(c2C(F)F)C(O)CS3(=O)=O)c1` (centres unmarked) [Compound 138, 3-((4-(Difluoromethyl)-3-hydroxy-1,1-dioxido-2,3-dihydrobenzo[b]thiophen-5-yl)oxy)-5-fluorobenzonitrile], the pEC50 with 786-O-Hif-Luc cells (setting [2]) was 5.84. Moreover, the pIC50 in test [1] (setting [3]) was 6.15.

As for `NC1c2c(ccc(Oc3cc(F)cc(F)c3)c2Br)S(=O)(=O)C1(F)F` (centres unmarked) [Compound 140, 3-Amino-4-bromo-5-(3,5-difluorophenoxy)-2,2-difluoro-2,3-dihydrobenzo[b]thiophene 1,1-dioxide], the pEC50 in the test on 786-O-Hif-Luc cells (24 h) is 5.77. This compound also gave a pIC50 in test [1] (setting [4]) above 8.30.

For `COCCNC1c2c(ccc(Oc3cc(F)cc(F)c3)c2Br)S(=O)(=O)C1(F)F` (centres unmarked) [Compound 143, 4-Bromo-5-(3,5-difluorophenoxy)-2,2-difluoro-3-((2-methoxyethyl)amino)-2,3-dihydrobenzo[b]thiophene 1,1-dioxide], in the test with 786-O-Hif-Luc cells (setting [2]), the pEC50 was 5.75. In test [1] (setting [3]), the pIC50 was above 8.30.

On to `O=S1(=O)c2ccc(Oc3cncc(Cl)c3)c(C(F)F)c2C(O)C1(F)F` (centres unmarked) [Compound 145, 5-((5-Chloropyridin-3-yl)oxy)-4-(difluoromethyl)-2,2-difluoro-3-hydroxy-2,3-dihydrobenzo[b]thiophene 1,1-dioxide], for which the pEC50 in the test on 786-O-Hif-Luc cells is 6.83. The pIC50 in test [1] (setting [4]) was 6.64.

On to `N#Cc1cncc(Oc2ccc3c(c2C(F)F)C(O)C(F)(F)S3(=O)=O)c1` (centres unmarked) [Compound 147, 5-((4-(Difluoromethyl)-2,2-difluoro-3-hydroxy-1,1-dioxido-2,3-dihydrobenzo[b]thiophen-5-yl)oxy)nicotinonitrile], for which, in the test on 786-O-Hif-Luc cells, the pEC50 is 6.77. The pIC50 in test [1] (setting [4]) is 6.92.

With `N#Cc1cc(F)cc(Oc2ccc3c(c2C(F)F)C(=O)C(F)(F)S3(=O)=O)c1` [Compound 149, 3-((4-(Difluoromethyl)-2,2-difluoro-1,1-dioxido-3-oxo-2,3-dihydrobenzo[b]thiophen-5-yl)oxy)-5-fluorobenzonitrile], the pEC50 with 786-O-Hif-Luc cells (setting [5]) is 5.55. In test [1] (setting [4]), this compound gave a pIC50 of 5.62.

As for `N#Cc1cc(F)cc(Oc2ccc3c(c2CF)C(O)C(F)(F)S3(=O)=O)c1` (centres unmarked) [Compound 152, 3-((2,2-Difluoro-4-(fluoromethyl)-3-hydroxy-1,1-dioxido-2,3-dihydrobenzo[b]thiophen-5-yl)oxy)-5-fluorobenzonitrile], in the test on 786-O-Hif-Luc cells (setting [2]), the pEC50 is 6.90. The pIC50 in test [1] (setting [3]) is 7.07.

`N#Cc1c(Oc2cc(F)cc(F)c2)ccc2c1C(O)C(F)S2(=O)=O` (centres unmarked) [Compound 154, 5-(3,5-Difluorophenoxy)-2-fluoro-3-hydroxy-2,3-dihydrobenzo[b]thiophene-4-carbonitrile 1,1-dioxide]: the pEC50 with 786-O-Hif-Luc cells (setting [2]) was 6.10. The pIC50 in test [1] (setting [3]) is 5.79.

Turning to `Cc1cc(C#N)cc(Oc2ccc3c(c2C(F)F)[C@@H](O)C(F)(F)S3(=O)=O)c1` [Compound 156, (R)-3-((4-(Difluoromethyl)-2,2-difluoro-3-hydroxy-1,1-dioxido-2,3-dihydrobenzo[b]thiophen-5-yl)oxy)-5-methylbenzonitrile], the negative-log EC50 (pEC50) with 786-O-Hif-Luc cells (setting [2]) was 7.00. Besides, the pIC50 in test [1] (setting [3]) was above 8.30.

For `N#CN=S1(=O)CC(O)c2c1ccc(Oc1cc(F)cc(F)c1)c2C(F)F` (centres unmarked) [Compound 158, N-(4-(Difluoromethyl)-5-(3,5-difluorophenoxy)-3-hydroxy-1-oxido-2,3-dihydro-1λ^4-benzo[b]thiophen-1-ylidene)cyanamide], the pEC50 in the test on 786-O-Hif-Luc cells (setting [2]) was 5.73. The pIC50 in test [1] (setting [3]) is 5.83.

For `N#CN=S1(=O)c2ccc(Oc3cc(F)cc(F)c3)c(C(F)F)c2C(O)C1(F)F` (centres unmarked) [Compound 161, N-(4-(Difluoromethyl)-5-(3,5-difluorophenoxy)-2,2-difluoro-3-hydroxy-1-oxido-2,3-dihydro-1λ^4-benzo[b]thiophen-1-ylidene)cyanamide], the negative-log EC50 (pEC50) with 786-O-Hif-Luc cells (setting [2]) was 5.82. Further, the pIC50 in test [1] (setting [3]) was 7.70.

Consider `O=S1(=O)c2ccc(OC3CCOCC3)c(C(F)F)c2C(O)C1(F)F` (centres unmarked) [Compound 164, 4-(Difluoromethyl)-2,2-difluoro-3-hydroxy-5-((tetrahydro-2H-pyran-4-yl)oxy)-2,3-dihydrobenzo[b]thiophene 1,1-dioxide], for which the pEC50 in the test with 786-O-Hif-Luc cells (setting [2]) is 5.81. Further, the pIC50 in test [1] (setting [3]) is 5.72.

In the case of `N[C@@H]1c2c(ccc(Oc3cc(F)cc(F)c3)c2C(F)F)S(=O)(=O)C1(F)F` [Compound 165, (R)-3-Amino-4-(difluoromethyl)-5-(3,5-difluorophenoxy)-2,2-difluoro-2,3-dihydrobenzo[b]thiophene 1,1-dioxide], in the test with 786-O-Hif-Luc cells (setting [2]), the pEC50 is 7.24. Moreover, the pIC50 in test [1] (setting [3]) is 7.48.

`O=S1(=O)c2ccc(Oc3cc(F)cc(Cl)c3)c(Br)c2[C@H](O)C1(F)F` [Compound 169, (3S)-4-Bromo-5-(3-chloro-5-fluoro-phenoxy)-2,2-difluoro-1,1-dioxo-3H-benzothiophen-3-ol]: in the test on 786-O-Hif-Luc cells (setting [5]), the pEC50 is 6.76. This compound also gave a pIC50 in test [1] (setting [4]) of 7.22.

In the case of `C#Cc1c(Oc2cc(F)cc(C#N)c2)ccc2c1C(O)C(F)(F)S2(=O)=O` (centres unmarked) [Compound 173, 3-((4-Ethynyl-2,2-difluoro-3-hydroxy-1,1-dioxido-2,3-dihydrobenzo[b]thiophen-5-yl)oxy)-5-fluorobenzonitrile], the negative logarithm of the EC50 (pEC50) in the test with 786-O-Hif-Luc cells (setting [2]) was 6.72. Besides, the pIC50 in test [1] (setting [3]) is 7.23.

Take `O=S1(=O)c2ccc(OCc3ccccc3)c(C(F)F)c2C(O)C1(F)F` (centres unmarked) [Compound 175, 5-Benzyloxy-4-(difluoromethyl)-2,2-difluoro-1,1-dioxo-3H-benzothiophen-3-ol]: the negative logarithm of the EC50 (pEC50) in the test on 786-O-Hif-Luc cells (setting [2]) is 6.29. In addition, the pIC50 in test [1] (setting [3]) is 6.25.

With `N#CN=S1(=O)c2ccc(Oc3cc(F)cc(F)c3)c(Cl)c2[C@@H](O)C1(F)F` (stereo partly drawn) [Compound 176, N-((3R)-4-Chloro-5-(3,5-difluorophenoxy)-2,2-difluoro-3-hydroxy-1-oxido-2,3-dihydro-1λ^4-benzo[b]thiophen-1-ylidene)cyanamide], the negative-log EC50 (pEC50) in the test on 786-O-Hif-Luc cells (setting [2]) is 5.67. Further, the pIC50 in test [1] (setting [3]) is 6.76.

`N#Cc1c(Oc2cc(F)cc(F)c2)ccc2c1[C@@H](O)CS2(=O)=O` [Compound 178, (R)-5-(3,5-difluorophenoxy)-3-hydroxy-2,3-dihydrobenzo[b]thiophene-4-carbonitrile 1,1-dioxide]: the pEC50 in the test with 786-O-Hif-Luc cells (setting [2]) is 6.44. Further, the pIC50 in test [1] (setting [3]) is 6.92.

With `N#Cc1cc(F)cc(Oc2ccc3c(c2C#N)[C@@H](O)CS3(=O)=O)c1` [Compound 180, (R)-5-(3-Cyano-5-fluorophenoxy)-3-hydroxy-2,3-dihydrobenzo[b]thiophene-4-carbonitrile 1,1-dioxide], the pEC50 in the test with 786-O-Hif-Luc cells (setting [2]) was 6.40. Also, the pIC50 in test [1] (setting [3]) is 4.89.

Take `N#Cc1c(Oc2cccc(F)c2)ccc2c1[C@@H](O)CS2(=O)=O` [Compound 186, (R)-5-(3-fluorophenoxy)-3-hydroxy-2,3-dihydrobenzo[b]thiophene-4-carbonitrile 1,1-dioxide]: the pEC50 in the test with 786-O-Hif-Luc cells (setting [2]) is 6.31. For the same compound, the pIC50 in test [1] (setting [3]) is 6.13.

Regarding `O=S1(=O)c2ccc(Oc3cncc(F)c3)c(Br)c2[C@@H](O)C1(F)F` [Compound 187, (R)-4-bromo-2,2-difluoro-5-((5-fluoropyridin-3-yl)oxy)-3-hydroxy-2,3-dihydrobenzo[b]thiophene 1,1-dioxide], the pEC50 in the test on 786-O-Hif-Luc cells (setting [2]) was 6.90. Besides, the pIC50 in test [1] (setting [3]) is 6.52.

In the case of `COc1cc(F)cc(Oc2ccc3c(c2Br)[C@@H](O)C(F)(F)S3(=O)=O)c1` [Compound 190, (R)-4-Bromo-2,2-difluoro-5-(3-fluoro-5-methoxyphenoxy)-3-hydroxy-2,3-dihydrobenzo[b]thiophene 1,1-dioxide], the pEC50 in the test on 786-O-Hif-Luc cells (setting [2]) was 6.38. The pIC50 in test [1] (setting [3]) was 7.24.

As to `COc1cc(F)cc(Oc2ccc3c(c2C#N)[C@@H](O)C(F)(F)S3(=O)=O)c1` [Compound 191, (R)-2,2-difluoro-5-(3-fluoro-5-methoxyphenoxy)-3-hydroxy-2,3-dihydrobenzo[b]thiophene-4-carbonitrile 1,1-dioxide], the pEC50 with 786-O-Hif-Luc cells (setting [2]) is 4.82. The pIC50 in test [1] (setting [3]) is 7.18.

Turning to `Cc1cncc(Oc2ccc3c(c2Br)[C@@H](O)C(F)(F)S3(=O)=O)c1` [Compound 192, (R)-4-bromo-2,2-difluoro-3-hydroxy-5-((5-methylpyridin-3-yl)oxy)-2,3-dihydrobenzo[b]thiophene 1,1-dioxide], the pEC50 in the test with 786-O-Hif-Luc cells (setting [2]) is 5.85. In test [1] (setting [3]), the pIC50 is 5.54.

On to `N#Cc1cccc(Oc2ccc3c(c2Br)[C@@H](O)C(F)(F)S3(=O)=O)c1` [Compound 194, (R)-3-((4-bromo-2,2-difluoro-3-hydroxy-1,1-dioxido-2,3-dihydrobenzo[b]thiophen-5-yl)oxy)benzonitrile], for which, in the test on 786-O-Hif-Luc cells (setting [2]), the pEC50 is 7.49. Moreover, in test [1] (setting [3]), the negative logarithm of the IC50 (pIC50) is 7.77.

Take `O=S1(=O)c2ccc(Oc3cncc(Cl)c3)c(Cl)c2[C@@H](O)C1(F)F` [Compound 196, (R)-4-Chloro-5-((5-chloropyridin-3-yl)oxy)-2,2-difluoro-3-hydroxy-2,3-dihydrobenzo[b]thiophene 1,1-dioxide]: the pEC50 in the test on 786-O-Hif-Luc cells (setting [2]) is 6.37. Also, the negative logarithm of the IC50 (pIC50) in test [1] (setting [3]) was 6.42.

Consider `COc1c(Oc2cc(F)cc(C#N)c2)ccc2c1C(O)C(F)(F)S2(=O)=O` (centres unmarked) [Compound 197, 3-((2,2-Difluoro-3-hydroxy-4-methoxy-1,1-dioxido-2,3-dihydrobenzo[b]thiophen-5-yl)oxy)-5-fluorobenzonitrile], for which the pEC50 in the test with 786-O-Hif-Luc cells (setting [2]) was 5.96. Also, the pIC50 in test [1] (setting [3]) was 6.03.

Consider `N#Cc1cc(F)cc(Oc2ccc3c(c2F)C(O)C(F)(F)S3(=O)=O)c1` (centres unmarked) [Compound 198, 3-Fluoro-5-((2,2,4-trifluoro-3-hydroxy-1,1-dioxido-2,3-dihydrobenzo[b]thiophen-5-yl)oxy)benzonitrile], for which the pEC50 with 786-O-Hif-Luc cells (setting [2]) was 6.05. Besides, in test [1] (setting [3]), the negative-log IC50 (pIC50) was 6.01.
